Experimental data as given in paper PMC4095795 (ChemMedChem, 2014).
pIC50: −log10 of the molar value.

Experiments:
[1] = tested on: PC3 prostate carcinoma cells; assay: Cell viability, MTT assay, PC3 cells; conditions: PC-3 cells, dark or irradiated, 24 h, tested 1 nM–100 μM
[2] = tested on: bone marrow macrophages (BMMs); assay: Cell viability, MTT assay, BMM cells; conditions: dark or irradiated, 24 h, tested 1 nM–100 μM
[3] = molecular target: T1, cathepsin K (Mus musculus, UniProt P55097); assay: Live cell cathepsin K activity staining in osteoclasts
T1 sequence (P55097 115-329): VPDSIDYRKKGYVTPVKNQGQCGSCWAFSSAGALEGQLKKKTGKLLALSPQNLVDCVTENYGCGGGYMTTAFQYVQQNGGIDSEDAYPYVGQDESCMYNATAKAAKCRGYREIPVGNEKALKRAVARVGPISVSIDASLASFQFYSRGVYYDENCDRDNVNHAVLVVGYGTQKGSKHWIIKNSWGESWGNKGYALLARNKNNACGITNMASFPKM

[4] = cited from earlier work
[5] = molecular target: T2, Recombinant cathepsin K (human) (Homo sapiens, UniProt P43235); conditions: read-out: IC50 against purified human cathepsin K; parent inhibitors; identical within error under light vs. dark; cathepsin K 2 nM, Z-Gly-Pro-Arg-AMC 100 μM
T2 sequence (P43235 115-329): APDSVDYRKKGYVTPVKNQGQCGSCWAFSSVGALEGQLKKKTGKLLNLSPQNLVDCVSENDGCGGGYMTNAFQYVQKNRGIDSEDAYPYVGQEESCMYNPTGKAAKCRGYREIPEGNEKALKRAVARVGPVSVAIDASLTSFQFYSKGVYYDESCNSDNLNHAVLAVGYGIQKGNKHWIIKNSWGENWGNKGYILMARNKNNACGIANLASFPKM

[6] = tested on: purified cathepsin K; conditions: read-out: IC50 against purified cathepsin K; literature value; cited from earlier work
[7] = longer than 2; cited from earlier work
[8] = tested on: cathepsin K; conditions: cited from earlier work

SMILES | concentrations with no effects on viability / well tolerated (MTT) [1] | concentrations with no effects on viability / well tolerated (MTT) [2] | effect on Z-LR-4MβNA hydrolysis at 1000 nM ([3]; 1000 nM, with CA074Me 1 μM) | difference in inhibition between light and dark ([3]; Z-LR-4MβNA, with CA074Me 1 μM) | plasma stability relative to 2 [4] | pIC50 [5] | pIC50 [6] | half-life in vivo relative to 2 [7] | inhibition of cathepsin K activity in live cell assays [8] | maximum inhibition of Z-LR-4MβNA hydrolysis ([3]; 4 under light conditions) | reduction of hydrolysis of Z-LR-4MβNA ([3]; 10–1000 nM, dose dependent, with CA074Me 1 μM)
CC#N.CC#N.F[P-](F)(F)(F)(F)F.F[P-](F)(F)(F)(F)F.[Ru+2].c1ccc(-c2ccccn2)nc1.c1ccc(-c2ccccn2)nc1 [reference compound] | up to 10 μM | up to 10 μM | slight reduction | no difference in inhibition between light and dark experiments |  |  |  |  |  |  | 
CC(C)CC(NC(=O)OCc1ccccc1)C(=O)NC(C#N)COCc1ccccc1 (stereo not drawn) [Compound 3, Cbz-Leu-Ser(OBn)-CN] |  |  |  |  | longer plasma stability | 7.55 | 8.05 | roughly 10 times |  |  | 
CC(C)CC(NC(=O)OCc1ccccc1)C(=O)NCC#N (stereo not drawn) [Compound 2, Cbz-Leu-NHCH2CN, reference compound] |  |  |  |  |  | 7.44 | 7.46 |  | inhibit cathepsin K activity in live cell assays | 50% | up to 50%
